# Laboratory results as given in patent US20130267474A1, “NOVEL PHYTOCHEMICALS FROM EXTRACTS OF MAPLE SYRUPS AND MAPLE TREES AND USES THEREOF” (UNIVERSITY OF RHODE ISLAND, priority 2010, published 2013).
# Where two headings read alike, the source gives them in different places.
# Tests used:
# [1] = tested on: CCD-18Co (normal human colon fibroblasts); assay: MTS cytotoxicity / antiproliferative assay; format: cell-based; conditions: 72 h; for CCD-18Co 72 h IC50: ginnalins
# Method: (§1) Cell lines included three human colon cancer cells: HT-29 (human colon adenocarcinoma), HCT116 (human colon carcinoma) and Caco-2 (human epithelial colorectal adenocarcinoma). In addition, normal human colon cells are included: CCD-^18Co (human colon fibroblasts). All cell lines are obtained from the American Type Culture Collection (ATCC, Rockville, Md., USA) and maintained at the University of Rhode Island.
# (§2) The assay is carried out to measure the IC50 values for samples. […] Test samples and a positive control, etoposide 4 mg/mL (Sigma), are solubilized in DMSO by sonication. […] Control wells are also included on all plates. […] Each point on the curve is […]. Data (see tables 6 to 9) are expressed as mean±SE for three replications on each cell line.
# [2] = tested on: HT-29 (human colon adenocarcinoma); assay: MTS cytotoxicity / antiproliferative assay; format: cell-based; conditions: for HT-29 48 h IC50 / HT-29 72 h IC50: ginnalins
# Method: as §1, §2
# [3] = tested on: Caco-2 (human epithelial colorectal adenocarcinoma); assay: MTS cytotoxicity / antiproliferative assay; format: cell-based; conditions: for Caco-2 48 h IC50 / Caco-2 72 h IC50: ginnalins
# Method: as §1, §2
# [4] = tested on: HCT-116 (human colon carcinoma); assay: MTS cytotoxicity / antiproliferative assay; format: cell-based; conditions: for HCT-116 48 h IC50 / HCT-116 72 h IC50: ginnalins
# Method: as §1, §2
# [5] = DPPH radical scavenging (antioxidant) assay; format: biochemical; conditions: Table 10; mean ± standard deviation; 30 min, 515 nm; read-out: IC50 (μM), DPPH radical scavenging
# Method: The DPPH radical scavenging activity of ascorbic acid (vitamin C) and the synthetic commercial antioxidant, butylated hydroxytoluene (BHT) are also assayed as positive controls (see Table 10). […] Absorbance is determined after 30 min at 515 nm, and the scavenging capacity (SC) is calculated as SC %=[(A0−A1/A0)]×100, where A0 is the absorbance of the reagent blank and A1 is the absorbance of the test samples. The control contained all reagents except the compounds, and all tests are performed in triplicate.
# Absorbance is determined after 30 min at 515 nm, and the scavenging capacity (SC) is calculated as SC %=[(A0−A1/A0)]×100 where A0 is the absorbance of the reagent blank, and A1 is the absorbance with test samples. The control contained all reagents except the compounds and all tests are performed in triplicate.
# [6] = tested on: colon cancer (HCT-116, Caco-2 and HT-29) cell lines; assay: MTS antiproliferative assay, statements pooled over the colon cancer cell lines; conditions: Homo sapiens, read-out: IC50 range, MTS assay, ginnalins, colon cell lines
# [7] = Homo sapiens, CCD-18Co, pure isolated compounds, read-out: Antiproliferative activity CCD-8Co 72 h (IC50)
# [8] = Homo sapiens, HT-29, 48 h, read-out: Antiproliferative activity HT-29 48 h (IC50), 48 h, pure isolated compounds
# [9] = Homo sapiens, HT-29, 72 h, 72 h, pure isolated compounds, read-out: Antiproliferative activity HT-29 72 h (IC50)
# [10] = Homo sapiens, Caco-2, 48 h, read-out: Antiproliferative activity Caco-2 48 h (IC50), 48 h, pure isolated compounds
# [11] = Homo sapiens, Caco-2, 72 h, 72 h, pure isolated compounds, read-out: Antiproliferative activity Caco-2 72 h (IC50)
# [12] = Homo sapiens, HCT-116, 48 h, read-out: Antiproliferative activity HCT-116 48 h (IC50), 48 h, pure isolated compounds
# [13] = Homo sapiens, HCT-116, 72 h, 72 h, pure isolated compounds, read-out: Antiproliferative activity HCT-116 72 h (IC50)
# [14] = Homo sapiens, HCT-116, 72 h, 72 h, range given for the group, read-out: IC50 against HCT-116 cells at 72 h (activity ranking)
# [15] = Homo sapiens, CCD-18Co, Table 6 maple compounds, unit inferred, read-out: CCD-18Co 72 h(IC50)
# [16] = Homo sapiens, HT-29, 48 h, read-out: HT-29 48 h(IC50), Table 6 maple compounds, 48 h, unit inferred
# [17] = Homo sapiens, HT-29, 72 h, Table 6 maple compounds, 72 h, unit inferred, read-out: HT-29 72 h(IC50)
# [18] = Homo sapiens, Caco-2, 48 h, read-out: Caco-2 48 h(IC50), Table 6 maple compounds, 48 h, unit inferred
# [19] = Homo sapiens, Caco-2, 72 h, Table 6 maple compounds, 72 h, unit inferred, read-out: Caco-2 72 h(IC50)
# [20] = Homo sapiens, HCT-116, 48 h, read-out: HCT-116 48 h(IC50), Table 6 maple compounds, 48 h, unit inferred
# [21] = Homo sapiens, HCT-116, 72 h, Table 6 maple compounds, 72 h, unit inferred, read-out: HCT-116 72 h(IC50)
# [22] = Homo sapiens, HCT-116, 72 h, 72 h, range given for the group, unit inferred, read-out: IC50 against HCT-116 cells at 72 h (moderately active group)
Structure (SMILES),IC50 [5] [µM],"IC50 [1, 7] [µM]","IC50 [2, 8] [µM]","IC50 [2, 9] [µM]","IC50 [3, 10] [µM]","IC50 [3, 11] [µM]","IC50 [4, 12] [µM]","IC50 [4, 13] [µM]","IC50 [4, 14] [µM]","IC50 [2, 16] [µM]","IC50 [2, 17] [µM]","IC50 [3, 18] [µM]","IC50 [3, 19] [µM]","IC50 [4, 20] [µM]","IC50 [4, 21] [µM]",other results
O=C(OC[C@H]1OC[C@H](OC(=O)c2cc(O)c(O)c(O)c2)[C@@H](O)[C@@H]1O)c1cc(O)c(O)c(O)c1 [Ginnalin A],–,–,–,–,–,–,–,–,–,–,–,–,–,–,–,CCD-18Co 72 h IC50 [1]: 46.6 ± 3.6 µg/mL; HT-29 48 h IC50 ([2]; 48 h): 31.0 ± 2.6 µg/mL; HT-29 72 h IC50 ([2]; 72 h): 24.1 ± 1.3 µg/mL; Caco-2 48 h IC50 ([3]; 48 h): 28.8 ± 1.8 µg/mL; Caco-2 72 h IC50 ([3]; 72 h): 21.7 ± 1.0 µg/mL; HCT-116 48 h IC50 ([4]; 48 h): 21.5 ± 1.6 µg/mL; HCT-116 72 h IC50 ([4]; 72 h): 16.3 ± 2.1 µg/mL
"COc1cc(CC(CO)C(CO)Cc2ccc(O)c(OC)c2)ccc1O (stereo not shown) [compound 2, secoisolariciresinol]",1540.9 ± 0.5,99.6 ± 4.9,88.7 ± 2.2,68.2 ± 1.4,85 ± 3.8,70.9 ± 2.3,78 ± 2.3,59.1 ± 1.5,42 to 67,–,–,–,–,–,–,–
COc1cc(C2Oc3c(OC)cc(CCCO)cc3C2CO)cc(OC)c1O (stereo not shown) [compound 4],–,–,–,–,–,–,–,–,–,88.7,68.2,85,70.9,78,59.1,"IC50 [1, 15]: 99.6 µM"
"COc1ccc(C2OC(=O)C(O)(Cc3ccc(OC4OC(C)C(O)C(O)C4O)c(OC)c3)C2CO)cc1OC [compound 7, [3-[4-[(6-deoxy-α-L-mannopyranosyl)oxy]-3-methoxyphenyl]methyl]-5-(3,4-dimethoxyphenyl)dihydro-3-hydroxy-4-(hydroxymethyl)-2(3H)-furanone]",740.2 ± 3.4,–,–,–,–,–,–,–,–,–,98.2,–,96.8,–,103,–
"COc1cc2ccc(=O)oc2cc1O [compound 8, scopoletin]",655 ± 14.4,103 ± 5.9,78.7 ± 1.2,70 ± 1.3,89.3 ± 0.9,82 ± 2,68.1 ± 1,60.6 ± 2,42 to 67,78.7,70.2,89.3,82,68.1,60.6,"IC50 [1, 15]: 103 µM"
"COc1cc2ccc(=O)oc2c(O)c1O [compound 9, fraxetin]",479 ± 42.1,–,101 ± 1.2,93.4 ± 2.6,–,101 ± 1.3,112 ± 1.8,84.5 ± 1.6,–,101,93.4,–,101,112,84.5,"IC50 [4, 22]: 75 to 85 µM"
"O=C(CO)c1ccc(O)c(O)c1 [compound 11, 2-hydroxy-3′,4′-dihydroxyacetophenone]",422.9 ± 2.4,–,–,–,–,–,–,–,–,–,–,92.5,86,–,–,–
"O=Cc1ccc(O)c(O)c1 [compound 14, catechaldehyde]",–,126 ± 4.6,71.6 ± 1.5,63.9 ± 1.6,73.2 ± 1.3,58.9 ± 1.9,63.3 ± 1.3,52.9 ± 1.4,42 to 67,71.6,63.9,73.2,58.9,63.3,52.9,"IC50 [1, 15]: 126 µM"
"COc1cc(C(=O)C(O)CO)ccc1O (stereo not shown) [compound 22, C-veratroylglycol]",138 ± 28.2,–,96 ± 1.5,88.6 ± 1.3,101 ± 1.6,90.8 ± 1,82.9 ± 2.1,66.7 ± 1.5,42 to 67,96,88.6,101,90.8,82.9,66.7,–
"Oc1ccccc1O [compound 23, catechol]",–,115 ± 2.7,99.4 ± 2.1,70.3 ± 2,71.5 ± 2.3,64.1 ± 2.5,86 ± 2.4,63 ± 1.3,42 to 67,–,–,–,–,–,–,–
"OCCc1ccc(O)cc1 [compound 50, tyrosol]",–,145 ± 4.1,128 ± 2.3,114 ± 1.8,112 ± 1.9,100 ± 2.6,115 ± 1.5,94.3 ± 1.8,94 to 110,–,–,–,–,–,–,–
"COc1cc(C(CO)C(c2ccc(O)c(OC)c2)c2ccc(O)c(OC)c2)ccc1O (stereo not shown) [compound 54, Quebecol]",–,120 ± 1.5,103 ± 1.7,86.1 ± 0.8,98.2 ± 1.5,78.5 ± 1.4,95.3 ± 0.6,76.2 ± 1.2,–,–,–,–,–,–,–,"IC50 [4, 22]: 75 to 85 µM"
"O=C(OC[C@H]1OC[C@H](OC(=O)c2cc(O)c(O)c(O)c2)[C@@H](O)[C@@H]1O)c1cc(O)c(O)c(O)c1 [compound 70, 2,6-di-O-galloyl-1,5-anhydro-D-glucitol]",–,–,–,–,–,–,–,–,–,77,51.6,61.6,46.5,54.6,43.4,"IC50 [1, 15]: 90.6 µM; IC50 [6]: 16 to 24 µg/mL"
"O=C(OC[C@H]1OC[C@H](O)[C@@H](O)[C@@H]1O)c1cc(O)c(O)c(O)c1 [compound 71, ginnalin-B]",–,–,–,–,–,–,–,–,–,–,–,–,–,–,–,"CCD-18Co 72 h IC50 [1]: 47.1 ± 5.3 µg/mL; IC50 ([1]; Table 6 maple compounds, unit inferred, read-out: CCD-18Co 72 h(IC50)): 107 µM; HT-29 48 h IC50 ([2]; 48 h): 36.2 ± 1.5 µg/mL; HT-29 72 h IC50 ([2]; 72 h): 27.3 ± 0.6 µg/mL; IC50 ([2]; Table 6 maple compounds, 72 h, unit inferred, read-out: HT-29 72 h(IC50)): 86.5 µM; IC50 ([2]; read-out: HT-29 48 h(IC50), Table 6 maple compounds, 48 h, unit inferred): 98.9 µM; Caco-2 48 h IC50 ([3]; 48 h): 31.1 ± 1.9 µg/mL; Caco-2 72 h IC50 ([3]; 72 h): 22.6 ± 1.9 µg/mL; IC50 ([3]; Table 6 maple compounds, 72 h, unit inferred, read-out: Caco-2 72 h(IC50)): 71.6 µM; IC50 ([3]; read-out: Caco-2 48 h(IC50), Table 6 maple compounds, 48 h, unit inferred): 98.7 µM; HCT-116 48 h IC50 ([4]; 48 h): 25.1 ± 1.8 µg/mL; HCT-116 72 h IC50 ([4]; 72 h): 20.0 ± 2.0 µg/mL; IC50 ([4]; Table 6 maple compounds, 72 h, unit inferred, read-out: HCT-116 72 h(IC50)): 50.9 µM; IC50 ([4]; read-out: HCT-116 48 h(IC50), Table 6 maple compounds, 48 h, unit inferred): 66.8 µM"
